From patent publication US9867861B2, “Process for the large scale production of fruit cells and treatment of diseases with such cells” (priority 2012, dated 2018)

Legend:
[1] = Solubility assay of resveratrol sources in water; type: physicochemical; settings: acidified water (pH=2) as well as pH 7.0
[2] = test system: carrageenan induced rat paw edema; settings: resveratrol 50 mg/kg body weight before carrageenan; Gentilli et al (2001); cited from earlier work
[3] = test system: carrageenan induced rat paw edema; test: Carrageenan induced rat paw edema, paw volume measurements; type: in vivo; settings: indomethacin 2 mg/kg 2 h before carrageenan; vs vehicle control
Source text: The aim of the present study was to evaluate the in vivo anti-inflammatory activity of RGC (Red Grape Cells) made according to the large scale process of the invention in an acute inflammation model in rats so as to verify the efficiency of the cells produced according to the invention. One of the experimental model most widely used to study acute inflammation in rodents is that based on the intraplantar administration of carrageenan. The study assessed the efficacy of the RGC by two methods: • 1. Paw volume measurements • 2. […] The rats in all groups were injected with 1% carrageenan (0.1 mg/paw) or sterile saline (0.9% NaCl) into the sub plantar tissue of left hind paw of each rat. • The Following Tests were Performed: • Paw Volumes Measurements • Carrageenan injected paw volumes were measured hourly just before carrageenan injection 0 and 1, 2, 4 hours after injection using caliper. • The paw dimensions were measured in two axes and paw volume was calculated. Paw edema volume in this model was an indication of the inflammation severity. • For each time point, the change in paw volume was calculated either by subtracting the baseline paw volume or as % of baseline paw volume. […]

[4] = test system: carrageenan-induced hind paw inflammation (hyperalgesia); test: Hot plate method, inflammatory nociception in freely moving rats after carrageenan; type: in vivo, rat; settings: indomethacin 2 mg/kg, vs vehicle control
Experimental: The study assessed the efficacy of the RGC by two methods: • 1. Paw volume measurements • 2. Inflammatory nociception in freely moving rats Materials and Methods: Red Grape Cells (RGC) prepared according to example 1. • RGC was administered orally at dose of 400 mg/kg body weight (2 ml/40 mg) as a suspension in sterile drinking water, 2 h before carrageenan injection. • RGC Composition: […] Rats were divided into three groups of eight rats in each group. The rats in all groups were injected with 1% carrageenan (0.1 mg/paw) or sterile saline (0.9% NaCl) into the sub plantar tissue of left hind paw of each rat. • The Following Tests were Performed: • Paw Volumes Measurements • Carrageenan injected paw volumes were measured hourly just before carrageenan injection 0 and 1, 2, 4 hours after injection using caliper. • The paw dimensions were measured in two axes and paw volume was calculated. Paw edema volume in this model was an indication of the inflammation severity. • For each time point, the change in paw volume was calculated either by subtracting the baseline paw volume or as % of baseline paw volume. Hot Plate Method for Measuring Inflammatory Nociception in Freely Moving Rats The hot plate method was used to determine inflammatory nociception in freely moving rates. […]

| Dissolution of RES in water, percentage compared to dissolution in 80% methanol [1] | SMILES | Paw edema [2] | Paw edema (volume %) [3] | Hot plate latency, % from baseline [4] | Hot plate latency delta, baseline-actual time ([4]; 2 and 4 h) |
| --- | --- | --- | --- | --- | --- |
| 7% | Oc1ccc(/C=C/c2cc(O)cc(O)c2)cc1 [Synthetic-RES, trans-3,5,4′-trihydroxystilbene] | failed to reduce paw edema |  |  |  |
|  | COc1ccc2c(c1)c(CC(=O)O)c(C)n2C(=O)c1ccc(Cl)cc1 [indomethacin] |  | statistically significant difference at 2 and 4 h | statistically significant difference at 2 and 4 h | significant decrease in the latency delta |
